How the values were obtained:
[1] = target: T1, Prostaglandin G/H synthase 1 (Ovis aries, UniProt P05979); assay: Inhibition of ovine COX1 assessed as reduction in PGF2alpha production using arachidonic acid as substrate by colorimetric method
T1 sequence (P05979 whole entry): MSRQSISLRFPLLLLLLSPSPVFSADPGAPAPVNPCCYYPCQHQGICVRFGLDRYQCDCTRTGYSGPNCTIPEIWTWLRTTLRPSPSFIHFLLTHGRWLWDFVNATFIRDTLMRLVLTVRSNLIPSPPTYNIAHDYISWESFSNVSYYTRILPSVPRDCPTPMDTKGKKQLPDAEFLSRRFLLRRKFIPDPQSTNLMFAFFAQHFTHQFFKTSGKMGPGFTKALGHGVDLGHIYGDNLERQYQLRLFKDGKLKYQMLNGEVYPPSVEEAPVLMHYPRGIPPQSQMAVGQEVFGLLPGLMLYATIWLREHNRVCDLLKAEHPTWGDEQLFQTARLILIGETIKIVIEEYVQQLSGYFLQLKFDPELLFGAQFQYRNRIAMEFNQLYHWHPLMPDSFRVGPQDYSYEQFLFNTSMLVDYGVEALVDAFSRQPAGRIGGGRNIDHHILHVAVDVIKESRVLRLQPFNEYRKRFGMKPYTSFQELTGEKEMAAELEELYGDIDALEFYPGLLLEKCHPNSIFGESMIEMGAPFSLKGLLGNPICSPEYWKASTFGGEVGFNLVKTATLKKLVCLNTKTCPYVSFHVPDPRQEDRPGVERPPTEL

Rattus norvegicus [2] = assay: Anti-inflammatory activity in rat acute inflammation model assessed as inhibition of formalin-induced paw edema at 5 mg/kg, po measured after 4 hrs relative to control; type: functional
Rattus norvegicus [3] = assay: Anti-inflammatory activity in rat acute inflammation model assessed as inhibition of formalin-induced paw edema at 5 mg/kg, po measured after 4 hrs relative to celecoxib; type: functional
Rattus norvegicus [4] = assay: Anti-inflammatory activity in rat acute inflammation model assessed as inhibition of formalin-induced paw edema at 5 mg/kg, po measured after 4 hrs relative to negative control
[5] = Inhibition of soybean 15-LOX using linoleic acid as substrate by colorimetric method; parameters: species or system Glycine max
THP-1 [6] = assay: Inhibition of PMA-induced human THP1 monocytes differentiation in to macrophages preincubated for 6 hrs followed by PMA stimulation by phase contrast microscopic method; type: functional, cell-based
Rattus norvegicus [7] = assay: Ulcerogenicity in Wistar rat assessed as hyperemia in gastric mucosa at 60 mg/kg, po after 6 hrs; type: toxicity, organism-based; conditions: in vivo
THP-1 [8] = assay: Cytotoxicity against human THP1 cells assessed as reduction in cell viability after 30 hrs by MTS assay; type: cell-based; conditions: thp-1, 30 h
Rattus norvegicus [9] = assay: Ulcerogenicity in Wistar rat assessed as lymphocytic infilteration in gastric mucosa po after 6 hrs by H and E staining based light microscopic method; conditions: in vivo
Rattus norvegicus [10] = assay: Ulcerogenicity in Wistar rat assessed as congested blood vessels in gastric mucosa esophagus at 60 mg/kg, po after 6 hrs by H and E staining based light microscopic method; type: toxicity, organism-based; conditions: in vivo
Rattus norvegicus [11] = assay: Ulcerogenicity in Wistar rat assessed as maceration of gastric mucosa at 60 mg/kg, po after 6 hrs by H and E staining based light microscopic method; type: toxicity, organism-based; conditions: in vivo
Rattus norvegicus [12] = assay: Ulcerogenicity in Wistar rat assessed as necrosis of gastric mucosa at 60 mg/kg, po after 6 hrs by H and E staining based light microscopic method; type: toxicity, organism-based; conditions: in vivo
Rattus norvegicus [13] = assay: Ulcerogenicity in Wistar rat assessed as effect on gastro-esophageal junction at 60 mg/kg, po after 6 hrs by H and E staining based light microscopic method; type: toxicity, organism-based; conditions: in vivo
[14] = target: T2, Serine/threonine-protein kinase Chk1 (Homo sapiens, UniProt O14757); assay: Inhibition of CHK1 (unknown origin)
T2 sequence (O14757 whole entry): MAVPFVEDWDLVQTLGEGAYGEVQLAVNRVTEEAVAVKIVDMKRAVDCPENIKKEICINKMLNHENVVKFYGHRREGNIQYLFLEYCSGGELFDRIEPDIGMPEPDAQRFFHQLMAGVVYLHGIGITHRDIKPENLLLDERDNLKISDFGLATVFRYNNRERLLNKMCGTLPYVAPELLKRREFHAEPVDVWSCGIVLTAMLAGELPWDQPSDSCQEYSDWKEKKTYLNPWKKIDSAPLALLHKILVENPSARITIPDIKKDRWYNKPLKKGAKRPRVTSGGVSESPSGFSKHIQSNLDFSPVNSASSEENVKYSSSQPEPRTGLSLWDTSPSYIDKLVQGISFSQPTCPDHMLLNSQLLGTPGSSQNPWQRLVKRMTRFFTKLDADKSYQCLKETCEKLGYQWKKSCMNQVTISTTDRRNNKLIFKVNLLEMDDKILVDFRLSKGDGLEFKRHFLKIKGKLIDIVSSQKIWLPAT

In the case of `COc1ccc(-n2c(SCc3cn(-c4ccc(Br)cc4)nn3)nc3ccccc3c2=O)cc1`, the IC50 [1] is reported as 7.63 µM.

`COc1ccc(-n2c(SCc3cc(-c4ccc(OC)c(OC)c4)no3)nc3ccccc3c2=O)cc1` showed an IC50 [1] of 6.53 µM.

Molecule `O=C(O)c1ccc(-n2cc(CSc3nc4ccccc4c(=O)n3-c3ccccc3)nn2)cc1` has an IC50 [1] of 5.89 µM.

Molecule `O=c1c2ccccc2nc(SCc2cn(-c3ccc(Br)cc3)nn2)n1-c1ccccc1` has an IC50 [1] of 5.89 µM.

`O=c1c2ccccc2nc(SCc2cc(-c3ccc(Cl)cc3)no2)n1-c1ccc(Cl)cc1` gave an IC50 [1] of 5.61 µM.

With `COc1ccc(-c2cc(CSc3nc4ccccc4c(=O)n3-c3ccccc3)on2)cc1` the IC50 [1] was 4.67 µM, the inhibition in vivo at 5 mg/kg (Rattus norvegicus [2]) was 61.1% and the inhibition in vivo at 5 mg/kg (Rattus norvegicus [3]) was 192%. It also gave an inhibition in vivo at 5 mg/kg (Rattus norvegicus [4]) of 50%.

`C#CCSc1nc2ccccc2c(=O)n1-c1ccc(Cl)cc1` showed an IC50 [1] of 4.26 µM.

Molecule `O=c1c2ccccc2nc(SCc2cn(-c3ccc(Br)cc3)nn2)n1-c1ccc(Br)cc1` has an IC50 [1] of 3.89 µM, an IC50 [5] of 3.98 µM and an IC50 (THP-1 [6]) of 99.4 µM. The inhibition in vivo at 5 mg/kg (Rattus norvegicus [2]) was 41.7%, the inhibition in vivo at 5 mg/kg (Rattus norvegicus [3]) was 133% and the Activity (Rattus norvegicus [7]) was “Toxic”. The Activity (THP-1 [8]) was “Non-Toxic”, the Activity (Rattus norvegicus [9]) was “Toxic” and the inhibition in vivo at 5 mg/kg (Rattus norvegicus [4]) was 50%.

`O=C(O)c1ccc(-n2cc(CSc3nc4ccccc4c(=O)n3-c3ccc(Cl)cc3)nn2)cc1` showed an IC50 [1] of 2.97 µM, an IC50 [5] of 7.62 µM and an IC50 (THP-1 [6]) of 0.13 µM. The inhibition in vivo at 5 mg/kg (Rattus norvegicus [2]) was 70.8%, the inhibition in vivo at 5 mg/kg (Rattus norvegicus [3]) was 225% and the Activity (Rattus norvegicus [7]) was “Toxic”. The Activity (Rattus norvegicus [10]) was “Toxic”, the Activity (Rattus norvegicus [11]) was “Non-Toxic” and the Activity (Rattus norvegicus [12]) was “Non-Toxic”. For the same molecule, the Activity (THP-1 [8]) was “Non-Toxic”, the Activity (Rattus norvegicus [9]) was “Non-Toxic” and the inhibition in vivo at 5 mg/kg (Rattus norvegicus [4]) was 50%.

Work on `O=c1c2ccccc2nc(SCc2cn(-c3ccccc3)nn2)n1-c1ccccc1` yielded an IC50 [1] of 7.33 µM.

Molecule `O=c1c2ccccc2nc(SCc2cc(-c3ccc(Cl)cc3)no2)n1-c1ccccc1` has an IC50 [1] of 8.79 µM.

For `O=c1c2ccccc2nc(SCc2cn(-c3ccc(Cl)cc3)nn2)n1-c1ccc(Cl)cc1`, the IC50 [1] was 6.32 µM.

In the case of `O=c1c2ccccc2nc(SCc2cc(-c3ccc(Cl)cc3)no2)n1-c1ccc(Br)cc1`, the IC50 [1] is reported as 9.14 µM.

`COc1ccc(-c2cc(CSc3nc4ccccc4c(=O)n3-c3ccc(Cl)cc3)on2)cc1OC` gave an IC50 [1] of 10.2 µM.

For `O=c1c2ccccc2nc(SCc2cn(-c3ccccc3)nn2)n1-c1ccc(Cl)cc1`, the IC50 [1] was 8.24 µM.

`O=c1c2ccccc2nc(SCc2cn(-c3ccc(Cl)cc3)nn2)n1-c1ccccc1` showed an IC50 [1] of 4.36 µM, an IC50 [5] of 4.33 µM and an IC50 (THP-1 [6]) of 1.24 µM. The inhibition in vivo at 5 mg/kg (Rattus norvegicus [2]) was 70.8%, the inhibition in vivo at 5 mg/kg (Rattus norvegicus [3]) was 225% and the Activity (Rattus norvegicus [7]) was “Non-Toxic”. For the same molecule, the Activity (Rattus norvegicus [13]) was “Non-Toxic”, the Activity (THP-1 [8]) was “Non-Toxic” and the inhibition in vivo at 5 mg/kg (Rattus norvegicus [4]) was 50%.

`COc1ccc(-n2c(SCc3cn(-c4ccc(C(=O)O)cc4)nn3)nc3ccccc3c2=O)cc1` gave an IC50 [1] of 11.9 µM.

In the case of `O=C(O)c1ccc(-n2cc(CSc3nc4ccccc4c(=O)n3-c3ccc(Br)cc3)nn2)cc1`, the IC50 [1] is reported as 8.67 µM.

In the case of `O=c1c2ccccc2nc(SCc2cn(-c3ccccc3)nn2)n1-c1ccc(Br)cc1`, the IC50 [1] is reported as 4.78 µM.

In the case of `COc1ccc(-n2c(SCc3cn(-c4ccc(Cl)cc4)nn3)nc3ccccc3c2=O)cc1`, the IC50 [1] is reported as 4.22 µM.

For `COc1ccc(-c2cc(CSc3nc4ccccc4c(=O)n3-c3ccc(OC)cc3)on2)cc1`, the IC50 [1] was 6.23 µM.

With `COc1ccc(-c2cc(CSc3nc4ccccc4c(=O)n3-c3ccc(Br)cc3)on2)cc1` the IC50 [1] was 5.34 µM, the inhibition in vivo at 5 mg/kg (Rattus norvegicus [2]) was 61.1% and the inhibition in vivo at 5 mg/kg (Rattus norvegicus [3]) was 192%. The inhibition in vivo at 5 mg/kg (Rattus norvegicus [4]) was 50%.

`CCCC[C@@H](Sc1nc2ccccc2c(=O)n1-c1cccc(C)c1)C(=O)N1CCC[C@]2(CCCNC2)C1` gave an IC50 [14] of 1.3 µM.

Work on `C#CCSc1nc2ccccc2c(=O)n1-c1ccc(OC)cc1` yielded an IC50 [1] of 6.54 µM.

With `C#CCSc1nc2ccccc2c(=O)n1-c1ccc(Br)cc1` the IC50 [1] was 3.87 µM, the IC50 [5] was 6.21 µM and the IC50 (THP-1 [6]) was 4.77 µM. The inhibition in vivo at 5 mg/kg (Rattus norvegicus [2]) was 70.8%, the inhibition in vivo at 5 mg/kg (Rattus norvegicus [3]) was 225% and the Activity (Rattus norvegicus [7]) was “Non-Toxic”. The Activity (Rattus norvegicus [13]) was “Non-Toxic”, the Activity (THP-1 [8]) was “Non-Toxic” and the inhibition in vivo at 5 mg/kg (Rattus norvegicus [4]) was 50%.

Molecule `COc1ccc(-c2cc(CSc3nc4ccccc4c(=O)n3-c3ccccc3)on2)cc1OC` has an IC50 [1] of 9.23 µM.

In the case of `O=c1c2ccccc2nc(SCc2cn(-c3ccc(Cl)cc3)nn2)n1-c1ccc(Br)cc1`, the IC50 [1] is reported as 5.27 µM, the IC50 [5] is reported as 5.21 µM and the IC50 (THP-1 [6]) is reported as 5.63 µM. The inhibition in vivo at 5 mg/kg (Rattus norvegicus [2]) was 70.8%, the inhibition in vivo at 5 mg/kg (Rattus norvegicus [3]) was 225% and the Activity (Rattus norvegicus [7]) was “Toxic”. The Activity (Rattus norvegicus [10]) was “Toxic”, the Activity (Rattus norvegicus [11]) was “Non-Toxic” and the Activity (Rattus norvegicus [12]) was “Non-Toxic”. For the same molecule, the Activity (THP-1 [8]) was “Non-Toxic”, the Activity (Rattus norvegicus [9]) was “Non-Toxic” and the inhibition in vivo at 5 mg/kg (Rattus norvegicus [4]) was 50%.

`O=c1c2ccccc2nc(SCc2cn(-c3ccc(Br)cc3)nn2)n1-c1ccc(Cl)cc1` gave an IC50 [1] of 3.67 µM.

`COc1ccc(-c2cc(CSc3nc4ccccc4c(=O)n3-c3ccc(Br)cc3)on2)cc1OC` gave an IC50 [1] of 4.57 µM, an inhibition in vivo at 5 mg/kg (Rattus norvegicus [2]) of 51.4% and an inhibition in vivo at 5 mg/kg (Rattus norvegicus [3]) of 167%. The inhibition in vivo at 5 mg/kg (Rattus norvegicus [4]) was 50%.

In the case of `COc1ccc(-n2c(SCc3cc(-c4ccc(Cl)cc4)no3)nc3ccccc3c2=O)cc1`, the IC50 [1] is reported as 7.68 µM.

In the case of `C#CCSc1nc2ccccc2c(=O)n1-c1ccccc1`, the IC50 [1] is reported as 3.78 µM.

In the case of `COc1ccc(-c2cc(CSc3nc4ccccc4c(=O)n3-c3ccc(Cl)cc3)on2)cc1`, the IC50 [1] is reported as 11.2 µM.

`COc1ccc(-n2c(SCc3cn(-c4ccccc4)nn3)nc3ccccc3c2=O)cc1` showed an IC50 [1] of 10.5 µM.

For `Cc1ccc(-c2cc(C(F)(F)F)nn2-c2ccc(S(N)(=O)=O)cc2)cc1` [CELECOXIB], the inhibition in vivo at 5 mg/kg (Rattus norvegicus [2]) was 33.3% and the Activity (Rattus norvegicus [13]) was “Non-Toxic”.

`O=C(O)Cc1ccccc1Nc1c(Cl)cccc1Cl` [DICLOFENAC] gave an IC50 (THP-1 [6]) of 4.86 µM, an inhibition in vivo at 5 mg/kg (Rattus norvegicus [2]) of 66.7% and an inhibition in vivo at 5 mg/kg (Rattus norvegicus [3]) of 208%. The Activity (THP-1 [8]) was “Non-Toxic”.

Work on `Cc1ccc(Cl)c(Nc2ccccc2C(=O)O)c1Cl` [MECLOFENAMATE SODIUM] yielded an IC50 [5] of 5.64 µM.

Work on `CC(c1cc2ccccc2s1)N(O)C(N)=O` (stereo unspecified) [ZILEUTON] yielded an IC50 [5] of 2.41 µM.

Reference: ChEMBL document CHEMBL4251628, “Novel click modifiable thioquinazolinones as anti-inflammatory agents: Design, synthesis, biological evaluation and docking study” (Eur J Med Chem, 2018)
